Measurements: patent US20120029187A1, “HALOALKYLSULFONANILIDE DERIVATIVE” (Nissan Chemical Industries, Ltd., priority 2009, published 2012)

Key:
Assay type in all cases: in vivo
ducksalad [1] = assay: Test Example 1: herbicidal effects in preemergence treatment under submerged conditions; details: dose 2.52 g/a
Excerpt: (§1) Test on the Herbicidal Effects in Preemergence Treatment on Weeds Under Submerged Conditions
(§2) Alluvial soil was put in 1/30000-are styrol cups and admixed with water so that it was submerged at a depth of 4 cm. In each cup, seeds of barnyardgrass, bulrush and ducksalad were sown together, and rice seedlings at the 2.5-leaf stage were transplanted. On the same day as the seeding, emulsifiable concentrates containing compounds of the present invention formulated in accordance with Formulation Example 2 were applied to the water surfaces at predetermined doses after diluted with water. The cups were placed in a greenhouse at 25 to 30° C. to grow the plants. Three weeks after the application, the herbicidal effects against various plants were determined on the following evaluation scale.
(§3) 5 mortality of 90% or above (nearly complete death)
(§4) 4 mortality of at least 70% and less than 90%
(§5) 3 mortality of at least 40% and less than 70%
(§6) 2 mortality of at least 20% and less than 40%
(§7) 1 mortality of at least 5% and less than 20%
(§8) 0 mortality of less than 5% (almost ineffective)
(§9) A: barnyardgrass, B: bulrush, C: ducksalad, D: large crabgrass, E: giant foxtail, F: wild oat, G: water foxtail, H: Italian ryegrass, I: velvetleaf, J: common ragweed, K: redroot pigweed, L: common lambsquater, M: posumbu knotweed, N: common chickweed, O: beadstraw, a: transplanted rice, b: corn, c: soybean, d: direct-seeded rice, e: wheat, f: sugar beet.
(§10) The doses (g/a) represents the amounts in g per 1 are (a) applied after adjustment of concentration adjustment.

barnyardgrass [2] = assay: as above; details: dose 2.52 g/a
Excerpt: as §1, §2, §3, §4, §5, §6, §7, §8, §9, §10

bulrush [3] = assay: as above; details: dose 2.52 g/a
Excerpt: as §1, §2, §3, §4, §5, §6, §7, §8, §9, §10

transplanted rice = assay: Test Example 1: preemergence treatment under submerged conditions, effect on crop; details: dose 2.52 g/a
Excerpt: as §1, §2, §3, §4, §5, §6, §7, §8, §9, §10

ducksalad [4] = assay: Test Example 2: herbicidal effects during the vegetation period under submerged conditions; details: treatment during the vegetation period under submerged conditions; dose 2.52 g/a
Method: (§11) Test on the Herbicidal Effects on Weeds During the Vegetation Period Under Submerged Conditions
(§12) Alluvial soil was put in 1/30000-are styrol cups and admixed with water so that it was submerged at a depth of 4 cm. In each cup, seeds of barnyardgrass, bulrush and ducksalad were sown together, and the cups were placed in a greenhouse at 25 to 30° C. to grow the plants. When the barnyardgrass, bulrush and ducksalad reached the 1- or 2-leaf stage, emulsifiable concentrates containing compounds of the present invention formulated in accordance with Formulation Example 2 were applied to the water surfaces at predetermined doses after diluted with water. Three weeks after the application, the herbicidal effects against various plants were determined on the same evaluation scale as in Test Example 1.
as §9, §10

barnyardgrass [5] = assay: as above; details: treatment during the vegetation period under submerged conditions; dose 2.52 g/a
Method: as §11, §12, §9, §10

bulrush [6] = assay: as above; details: treatment during the vegetation period under submerged conditions; dose 2.52 g/a
Method: as §11, §12, §9, §10

water foxtail [7] = assay: Test Example 3: herbicidal effects in soil treatment; details: dose 3.2 g/a
Excerpt: (§13) Test on the Herbicidal Effects in Soil Treatment
(§14) Sterilized diluvial soil was put in plastic boxes with a length of 21 cm, a width of 13 cm and a depth of 7 cm, and seeds of barnyardgrass, large crabgrass, giant foxtail, wild oat, blackgrass, velvetleaf, common ragweed, redroot pigweed, common lambsquater, posumbu knotweed, common chickweed corn, soybean, rice, wheat and sugar beet were sown in spots and covered with an about 1.5 cm-thick soil layer. Emulsifiable concentrates containing compounds of the present invention formulated in accordance with Formulation Example 2 were uniformly applied to the soil surfaces at predetermined doses through a small sprayer after dilute with water. Three weeks after the application, the herbicidal effects against various plants were determined on the same evaluation scale as in Test Example 1.
as §9, §10

redroot pigweed [8] = assay: as above; details: dose 3.2 g/a
Excerpt: as §13, §14, §9, §10

giant foxtail [9] = assay: as above; details: dose 3.2 g/a
Excerpt: as §13, §14, §9, §10

posumbu knotweed [10] = assay: as above; details: dose 3.2 g/a
Excerpt: as §13, §14, §9, §10

barnyardgrass [11] = assay: as above; details: dose 3.2 g/a
Excerpt: as §13, §14, §9, §10

common lambsquater [12] = assay: as above; details: dose 3.2 g/a
Excerpt: as §13, §14, §9, §10

Italian ryegrass [13] = assay: as above; details: dose 3.2 g/a
Excerpt: as §13, §14, §9, §10

common ragweed [14] = assay: as above; details: dose 3.2 g/a
Excerpt: as §13, §14, §9, §10

large crabgrass [15] = assay: as above; details: dose 3.2 g/a
Excerpt: as §13, §14, §9, §10

common chickweed [16] = assay: as above; details: dose 3.2 g/a
Excerpt: as §13, §14, §9, §10

water foxtail [17] = assay: Test Example 4: herbicidal effect in foliage treatment; details: dose 3.2 g/a, three weeks after application
Excerpt: (§15) Test on the Herbicidal Effect in Foliage Treatment
as §14, with “chickweed,” for “chickweed”, “The boxes were placed in a greenhouse at 25 to 30° C. to grow the plants. After 14 days, emulsifiable” for “Emulsifiable”, “foliage” for “soil surfaces”, “diluted” for “dilute”
as §9, §10

redroot pigweed [18] = assay: as above; details: dose 3.2 g/a, three weeks after application
Excerpt: as §15
as §14, with “chickweed,” for “chickweed”, “The boxes were placed in a greenhouse at 25 to 30° C. to grow the plants. After 14 days, emulsifiable” for “Emulsifiable”, “foliage” for “soil surfaces”, “diluted” for “dilute”
as §9, §10

giant foxtail [19] = assay: as above; details: dose 3.2 g/a, three weeks after application
Excerpt: as §15
as §14, with “chickweed,” for “chickweed”, “The boxes were placed in a greenhouse at 25 to 30° C. to grow the plants. After 14 days, emulsifiable” for “Emulsifiable”, “foliage” for “soil surfaces”, “diluted” for “dilute”
as §9, §10

posumbu knotweed [20] = assay: as above; details: dose 3.2 g/a, three weeks after application
Excerpt: as §15
as §14, with “chickweed,” for “chickweed”, “The boxes were placed in a greenhouse at 25 to 30° C. to grow the plants. After 14 days, emulsifiable” for “Emulsifiable”, “foliage” for “soil surfaces”, “diluted” for “dilute”
as §9, §10

barnyardgrass [21] = assay: as above; details: dose 3.2 g/a, three weeks after application
Excerpt: as §15
as §14, with “chickweed,” for “chickweed”, “The boxes were placed in a greenhouse at 25 to 30° C. to grow the plants. After 14 days, emulsifiable” for “Emulsifiable”, “foliage” for “soil surfaces”, “diluted” for “dilute”
as §9, §10

common lambsquater [22] = assay: as above; details: dose 3.2 g/a, three weeks after application
Excerpt: as §15
as §14, with “chickweed,” for “chickweed”, “The boxes were placed in a greenhouse at 25 to 30° C. to grow the plants. After 14 days, emulsifiable” for “Emulsifiable”, “foliage” for “soil surfaces”, “diluted” for “dilute”
as §9, §10

Italian ryegrass [23] = assay: as above; details: dose 3.2 g/a, three weeks after application
Excerpt: as §15
as §14, with “chickweed,” for “chickweed”, “The boxes were placed in a greenhouse at 25 to 30° C. to grow the plants. After 14 days, emulsifiable” for “Emulsifiable”, “foliage” for “soil surfaces”, “diluted” for “dilute”
as §9, §10

common ragweed [24] = assay: as above; details: dose 3.2 g/a, three weeks after application
Excerpt: as §15
as §14, with “chickweed,” for “chickweed”, “The boxes were placed in a greenhouse at 25 to 30° C. to grow the plants. After 14 days, emulsifiable” for “Emulsifiable”, “foliage” for “soil surfaces”, “diluted” for “dilute”
as §9, §10

velvetleaf = assay: as above; details: dose 3.2 g/a, three weeks after application
Excerpt: as §15
as §14, with “chickweed,” for “chickweed”, “The boxes were placed in a greenhouse at 25 to 30° C. to grow the plants. After 14 days, emulsifiable” for “Emulsifiable”, “foliage” for “soil surfaces”, “diluted” for “dilute”
as §9, §10

beadstraw = assay: as above; details: dose 3.2 g/a, three weeks after application
Excerpt: as §15
as §14, with “chickweed,” for “chickweed”, “The boxes were placed in a greenhouse at 25 to 30° C. to grow the plants. After 14 days, emulsifiable” for “Emulsifiable”, “foliage” for “soil surfaces”, “diluted” for “dilute”
as §9, §10

large crabgrass [25] = assay: as above; details: dose 3.2 g/a, three weeks after application
Excerpt: as §15
as §14, with “chickweed,” for “chickweed”, “The boxes were placed in a greenhouse at 25 to 30° C. to grow the plants. After 14 days, emulsifiable” for “Emulsifiable”, “foliage” for “soil surfaces”, “diluted” for “dilute”
as §9, §10

common chickweed [26] = assay: as above; details: dose 3.2 g/a, three weeks after application
Excerpt: as §15
as §14, with “chickweed,” for “chickweed”, “The boxes were placed in a greenhouse at 25 to 30° C. to grow the plants. After 14 days, emulsifiable” for “Emulsifiable”, “foliage” for “soil surfaces”, “diluted” for “dilute”
as §9, §10

## CC1(C(F)(F)F)CC(=O)N(Cc2ccccc2N(C(=O)C2CC2)S(=O)(=O)C(F)(F)F)CO1 (centres unmarked) [II-48]
Ducksalad [1]
  C: ducksalad, herbicidal effect (evaluation scale 0-5): 5 (mortality of 90% or above (nearly complete death))
Barnyardgrass [2]
  A: barnyardgrass, herbicidal effect (evaluation scale 0-5): 5 (mortality of 90% or above (nearly complete death))
Bulrush [3]
  B: bulrush, herbicidal effect (evaluation scale 0-5): 5 (mortality of 90% or above (nearly complete death))
Transplanted rice
  a: transplanted rice, effect on crop (evaluation scale 0-5): 0 (mortality of less than 5% (almost ineffective))
Ducksalad [4]
  C: ducksalad, herbicidal effect (evaluation scale 0-5): 5 (mortality of 90% or above (nearly complete death))
Barnyardgrass [5]
  A: barnyardgrass, herbicidal effect (evaluation scale 0-5): 5 (mortality of 90% or above (nearly complete death))
Bulrush [6]
  B: bulrush, herbicidal effect (evaluation scale 0-5): 5 (mortality of 90% or above (nearly complete death))
Water foxtail [7]
  G: water foxtail, herbicidal effect (evaluation scale 0-5): 5 (mortality of 90% or above (nearly complete death))
Redroot pigweed [8]
  K: redroot pigweed, herbicidal effect (evaluation scale 0-5): 0 (mortality of less than 5% (almost ineffective))
Giant foxtail [9]
  E: giant foxtail, herbicidal effect (evaluation scale 0-5): 4 (mortality of at least 70% and less than 90%)
Posumbu knotweed [10]
  M: posumbu knotweed, herbicidal effect (evaluation scale 0-5): 3 (mortality of at least 40% and less than 70%)
Barnyardgrass [11]
  A: barnyardgrass, herbicidal effect (evaluation scale 0-5): 5 (mortality of 90% or above (nearly complete death))
Common lambsquater [12]
  L: common lambsquater, herbicidal effect (evaluation scale 0-5): 0 (mortality of less than 5% (almost ineffective))
Italian ryegrass [13]
  H: Italian ryegrass, herbicidal effect (evaluation scale 0-5): 0 (mortality of less than 5% (almost ineffective))
Common ragweed [14]
  J: common ragweed, herbicidal effect (evaluation scale 0-5): 4 (mortality of at least 70% and less than 90%)
Large crabgrass [15]
  D: large crabgrass, herbicidal effect (evaluation scale 0-5): 5 (mortality of 90% or above (nearly complete death))
Common chickweed [16]
  N: common chickweed, herbicidal effect (evaluation scale 0-5): 4 (mortality of at least 70% and less than 90%)
Water foxtail [17]
  G: water foxtail, herbicidal effect: 2 (mortality of at least 20% and less than 40%)
Redroot pigweed [18]
  K: redroot pigweed, herbicidal effect: 0 (mortality of less than 5% (almost ineffective))
Giant foxtail [19]
  E: giant foxtail, herbicidal effect: 2 (mortality of at least 20% and less than 40%)
Posumbu knotweed [20]
  M: posumbu knotweed, herbicidal effect: 2 (mortality of at least 20% and less than 40%)
Barnyardgrass [21]
  A: barnyardgrass, herbicidal effect: 4 (mortality of at least 70% and less than 90%)
Common lambsquater [22]
  L: common lambsquater, herbicidal effect: 0 (mortality of less than 5% (almost ineffective))
Italian ryegrass [23]
  H: Italian ryegrass, herbicidal effect: 0 (mortality of less than 5% (almost ineffective))
Common ragweed [24]
  J: common ragweed, herbicidal effect: 2 (mortality of at least 20% and less than 40%)
velvetleaf
  I: velvetleaf, herbicidal effect: 4 (mortality of at least 70% and less than 90%)
beadstraw
  O: beadstraw, herbicidal effect: 4 (mortality of at least 70% and less than 90%)
Large crabgrass [25]
  D: large crabgrass, herbicidal effect: 1 (mortality of at least 5% and less than 20%)
Common chickweed [26]
  N: common chickweed, herbicidal effect: 3 (mortality of at least 40% and less than 70%)
